Laboratory results as given in PubChem BioAssay (NCI).
Several values for one entry are separate records, joined by “and”; a condition that tells them apart may be missing. Identical values can stand only once.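 In this assay, cells in 96-well plates receive the compound at five concentrations for 48 hours. Endpoints are linearly interpolated between the surrounding concentrations. Here, GI50 denotes the concentration required for 50% inhibition of growth. TGI denotes the concentration required for complete inhibition of growth.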

What was measured:
Assay in all cases: NCI-60 cell line screen, 48 h
SF-268 CNS = test system: SF-268 CNS
NCI-H522 lung = test system: NCI-H522 lung
SW-620 colon = test system: SW-620 colon
SK-MEL-5 melanoma = test system: SK-MEL-5 melanoma
UACC-257 melanoma = test system: UACC-257 melanoma
HT29 colon = test system: HT29 colon
HOP-92 NSCLC = test system: HOP-92 NSCLC
NCI/ADR-RES ovarian = test system: NCI/ADR-RES ovarian
UO-31 renal = test system: UO-31 renal
786-0 renal = test system: 786-0 renal
NCI-H226 lung = test system: NCI-H226 lung
MDA-MB-435 = test system: MDA-MB-435

Row | SMILES | GI50 (SF-268 CNS) [µM] | TGI (SF-268 CNS) | TGI (NCI-H522 lung) [µM] | TGI (SW-620 colon) | TGI (SK-MEL-5 melanoma) [µM] | TGI (UACC-257 melanoma) [µM] | GI50 (HT29 colon) [µM] | TGI (HT29 colon) | GI50 (HOP-92 NSCLC) | TGI (HOP-92 NSCLC) | TGI (NCI/ADR-RES ovarian) [µM] | GI50 (UO-31 renal) [µM] | TGI (UO-31 renal) | TGI (786-0 renal) [µM] | GI50 (NCI-H226 lung) [µM] | TGI (NCI-H226 lung) | TGI (MDA-MB-435) [µM] | GI50 (SW-620 colon) [µM] | GI50 (NCI/ADR-RES ovarian) [µM]
1 | Cc1c2ccnc(C(N)=O)c2c(C)c2c1[nH]c1ccccc12 | 6.19 | 44.6 µM and 27.8 µM | 31.6 | 45.6 µM and 40.8 µM | 13.6 | 35.1 | 4.12 | 23.2 µM and 20.4 µM | 2.96 µM and 11.5 µM | 12 µM and 53.2 µM | 34 | 5.6 | 25.2 µM and 21.7 µM | 23.3 | 3.28 | 19.8 µM and 15.7 µM |  |  | 
2 | COc1ccc2ccc3oc(=O)c(C)cc3c2c1 |  | > 100 µM | > 100 | > 100 µM | > 100 | > 100 |  | > 100 µM |  |  | > 100 |  | > 100 µM | > 100 |  | > 100 µM | > 100 |  | 
3 | CN(CCN1CCCC1)C1CCc2cc(Cl)c(Cl)cc2C1 (stereo unspecified) |  | 34 µM | 33 | 89 µM | 24.8 | 32.4 |  | 22.8 µM |  |  | 28 |  | 27.7 µM | 28.3 |  | 34.8 µM | 37.5 |  | 
4 | COC(=O)CNC(=O)C(CSC(=O)OCC1c2ccccc2-c2ccccc21)NC(=O)CCC(NC(=O)OCC1c2ccccc2-c2ccccc21)C(=O)OC (stereo unspecified) |  | 51.9 µM | 17 | > 100 µM | > 100 | > 100 |  |  |  | 30.8 µM | > 100 |  | 35 µM | 26.6 |  | > 100 µM | 67.4 |  | 
5 | OCc1cn(Cc2ccccc2)c2ccccc12 |  | 40.2 µM | 17.1 | > 100 µM | > 47.2 |  |  | > 84.5 µM |  | 22.9 µM | 42.4 |  | > 100 µM | > 53 |  | 0.123 µM | > 64.7 |  | 
6 | Nc1ncnc2c1nnn2C1C=CC(CP(=O)(O)O)C1 (stereo unspecified) |  | > 100 µM |  | > 100 µM | > 100 | > 100 |  | > 100 µM |  |  | > 100 |  | > 100 µM | > 100 |  | > 100 µM |  |  | 
7 | O=C(COc1ccc(OCC(=O)N/N=C/c2ccc(-c3ccc(Cl)cc3Cl)o2)c(Cl)c1)N/N=C/c1ccc(-c2ccc(Cl)cc2Cl)o1 |  | > 100 µM | > 100 | > 100 µM | > 100 | > 100 |  | > 100 µM |  |  | > 100 |  | > 100 µM | > 100 |  | > 100 µM | > 100 |  | 
8 | O=[N+]([O-])c1cccc(C2=NN(c3ccccc3)C3c4cc(Br)ccc4OCC23)c1 (stereo unspecified) |  | > 100 µM | > 100 | > 100 µM | > 100 | > 100 |  | > 100 µM |  | > 100 µM |  |  | > 100 µM | > 100 |  |  |  |  | 
9 | COc1cc2nc(-c3ccc(Cl)cc3)cc(OCCCN3CCOCC3)c2cc1OC |  |  |  | > 100 µM |  |  | 0.61 | > 100 µM | 1.36 µM | 5.17 µM | > 100 |  |  |  | 0.997 | 4.81 µM |  | 3.57 | 1.15
10 | COC(=O)/C=C(\C)CC/C=C(\C)CCC1OC1(C)C (stereo unspecified) |  |  |  | 28.4 µM | 22.4 | 23.3 |  | 27.6 µM |  | 22.8 µM | 28 |  | 20.8 µM | 23.6 |  | 24.8 µM |  |  | 
11 | S=C(Cc1ccc2c(c1)Sc1ccccc1O2)N1CCOCC1 |  | > 100 µM |  | > 100 µM |  | > 100 |  | > 100 µM |  | > 100 µM | > 100 |  | > 100 µM | > 100 |  | > 100 µM | > 100 |  | 
12 | COc1cc(C)c(CC/C(C)=C/Cc2cc(O)ccc2O)c(C)c1C |  | > 25 µM | > 25 | > 25 µM | > 25 |  |  | > 25 µM |  | > 25 µM |  |  | > 25 µM | > 25 |  | > 25 µM |  |  | 
13 | CN(C)C(=O)C(F)(F)C(c1ccc(F)cc1)C1C(=O)N(C)C(=O)N(C)C1=O (stereo unspecified) |  | > 100 µM |  | > 100 µM | > 100 | > 100 |  |  |  | > 100 µM | > 100 |  | > 100 µM | > 100 |  | > 100 µM | > 100 |  | 
14 | O=c1oc2ccc3ccccc3c2cc1-c1cn2ccsc2n1 |  | 56.3 µM | 36.8 | 46.8 µM | 56.5 | 66.1 |  | 37.8 µM |  | 30 µM | 96.2 |  | 31.7 µM | 32.7 |  |  | 46 |  | 
15 | CCc1c(O)cc(=O)oc1-c1ccc(OC)c(OC)c1 |  | > 100 µM | > 100 | > 100 µM | > 100 | > 100 |  | > 100 µM |  | > 100 µM | > 100 |  | > 100 µM | > 100 |  |  | > 100 |  | 
16 | Cc1ccccc1-c1nc2c(N)nc(N)nc2nc1N |  | > 100 µM | > 100 | > 100 µM | > 100 | > 100 |  | > 100 µM |  |  | > 100 |  | > 100 µM | > 100 |  |  | > 100 |  | 
17 | COc1cccc(C2c3cc4c(cc3OC(O)C2C)OCO4)c1OC (stereo unspecified) |  | 41.7 µM |  | 54 µM | 21.8 | 37.9 |  | 24.5 µM |  | 8.55 µM |  |  |  | 19.2 |  | 24.8 µM | 33.9 |  | 
18 | Cc1c(N2CCOCC2)nc2ccc(Cl)cc2c1-c1ccccc1 |  | > 100 µM | > 100 | > 100 µM | 65.7 | > 100 |  | > 100 µM |  | > 100 µM |  |  | > 100 µM | > 100 |  |  |  |  | 
19 | Cc1nc(N)c(N2CCN(C#N)CC2)c(=O)[nH]1 |  | > 100 µM | > 100 | > 100 µM |  | > 100 |  | > 100 µM |  |  | > 100 |  | > 100 µM | > 100 |  | > 100 µM | > 100 |  | 
20 | C[C@]12CCC3[C@@H](CCC45OC4C(=O)CC[C@]35C)C1Cc1cnn(-c3ccc(F)cc3)c1N2 (stereo partly specified) |  | 77.8 µM | 34.8 | 97 µM | > 100 | > 100 |  | 33 µM |  |  |  |  | > 100 µM | 35.2 |  | > 100 µM |  |  | 
21 | CC1=NN(C(=O)Cc2ccccc2)C(=O)/C1=C\c1ccc(O)cc1 |  | > 100 µM | > 100 | > 100 µM | > 100 | > 100 |  | > 100 µM |  | > 100 µM |  |  | > 100 µM | > 100 |  | > 100 µM |  |  | 
